# Experimental data: PMC3969243, “A PIP5 Kinase Essential for Efficient Chemotactic Signaling” (Current Biology, 2014)
# Experiments:
# [1] = molecular target: T1, PikI (Dictyostelium discoideum, UniProt Q55GN6, T262E); conditions: product PI(4,5)P2; phosphomimetic
# T1 construct: gene DDB_G0267588
# [2] = molecular target: T2, PikI (Dictyostelium discoideum, UniProt Q55GN6, T262A); conditions: product PI(4,5)P2
# T2 construct: gene DDB_G0267588
# [3] = molecular target: T3, PikI (Dictyostelium discoideum, UniProt Q55GN6); conditions: product PI(4,5)P2
# T3 construct: gene DDB_G0267588
# T3 sequence (Q55GN6 whole entry): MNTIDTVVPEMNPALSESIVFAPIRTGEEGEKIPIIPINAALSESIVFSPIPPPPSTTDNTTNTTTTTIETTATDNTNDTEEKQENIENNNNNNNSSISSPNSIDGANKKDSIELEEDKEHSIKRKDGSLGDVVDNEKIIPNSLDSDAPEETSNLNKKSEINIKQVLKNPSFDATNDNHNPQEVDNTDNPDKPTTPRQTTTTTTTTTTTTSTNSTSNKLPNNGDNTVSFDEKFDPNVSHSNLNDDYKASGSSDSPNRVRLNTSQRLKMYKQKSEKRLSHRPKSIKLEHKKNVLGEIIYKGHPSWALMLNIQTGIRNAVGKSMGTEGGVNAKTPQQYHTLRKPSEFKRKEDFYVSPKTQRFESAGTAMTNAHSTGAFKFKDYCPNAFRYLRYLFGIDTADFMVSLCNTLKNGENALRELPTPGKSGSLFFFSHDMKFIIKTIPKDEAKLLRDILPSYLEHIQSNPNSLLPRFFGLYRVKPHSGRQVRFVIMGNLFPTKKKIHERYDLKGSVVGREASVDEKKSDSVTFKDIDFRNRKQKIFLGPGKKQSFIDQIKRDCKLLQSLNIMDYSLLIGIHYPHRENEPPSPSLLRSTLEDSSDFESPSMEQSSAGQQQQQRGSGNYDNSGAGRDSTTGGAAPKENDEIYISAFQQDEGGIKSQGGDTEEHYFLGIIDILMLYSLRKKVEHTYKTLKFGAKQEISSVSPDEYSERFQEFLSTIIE
# T2 sequence (Q55GN6 whole entry T262A): as the sequence (Q55GN6 whole entry) above, with T262A counted along it
# T1 sequence (Q55GN6 whole entry T262E): as the sequence (Q55GN6 whole entry) above, with T262E counted along it
substance,measurement,setting,value
PI(4)P,Km,[1],6.39 ± 3.69 µM
same,Km,[2],4.6 ± 2.87 µM
same,Km,[3],5.74 ± 3.18 µM
